These are literature values, as cited in patent US20070027110A1, “Double salts of (-)-hydroxycitric acid with an amine and a group II a metal and a process for preparing the same” (priority 2004, published 2007).

The conditions of this data set: free acid form, forming lactone; liquid form unstable during storage.

In the case of `O=C(O)CC(O)(C(=O)O)C(O)C(=O)O` (single isomer, unassigned; (-)) [(−)-hydroxycitric acid], the stability result is on record as “unstable”.
